The record followed here is ChEMBL document CHEMBL5465560, “Selectivity Literature for EUbOPEN Chemogenomic Library” (2024).

Each structure is given as a SMILES string. Where a chain is given by its changes, count along the chain named.

Holding throughout (assay type): cell-based
Holding throughout (details): at 1 µM

Experiment [1] relates to T1, Receptor-type tyrosine-protein kinase FLT3 (Homo sapiens), P36888 [D835Y].
T1 sequence (whole entry): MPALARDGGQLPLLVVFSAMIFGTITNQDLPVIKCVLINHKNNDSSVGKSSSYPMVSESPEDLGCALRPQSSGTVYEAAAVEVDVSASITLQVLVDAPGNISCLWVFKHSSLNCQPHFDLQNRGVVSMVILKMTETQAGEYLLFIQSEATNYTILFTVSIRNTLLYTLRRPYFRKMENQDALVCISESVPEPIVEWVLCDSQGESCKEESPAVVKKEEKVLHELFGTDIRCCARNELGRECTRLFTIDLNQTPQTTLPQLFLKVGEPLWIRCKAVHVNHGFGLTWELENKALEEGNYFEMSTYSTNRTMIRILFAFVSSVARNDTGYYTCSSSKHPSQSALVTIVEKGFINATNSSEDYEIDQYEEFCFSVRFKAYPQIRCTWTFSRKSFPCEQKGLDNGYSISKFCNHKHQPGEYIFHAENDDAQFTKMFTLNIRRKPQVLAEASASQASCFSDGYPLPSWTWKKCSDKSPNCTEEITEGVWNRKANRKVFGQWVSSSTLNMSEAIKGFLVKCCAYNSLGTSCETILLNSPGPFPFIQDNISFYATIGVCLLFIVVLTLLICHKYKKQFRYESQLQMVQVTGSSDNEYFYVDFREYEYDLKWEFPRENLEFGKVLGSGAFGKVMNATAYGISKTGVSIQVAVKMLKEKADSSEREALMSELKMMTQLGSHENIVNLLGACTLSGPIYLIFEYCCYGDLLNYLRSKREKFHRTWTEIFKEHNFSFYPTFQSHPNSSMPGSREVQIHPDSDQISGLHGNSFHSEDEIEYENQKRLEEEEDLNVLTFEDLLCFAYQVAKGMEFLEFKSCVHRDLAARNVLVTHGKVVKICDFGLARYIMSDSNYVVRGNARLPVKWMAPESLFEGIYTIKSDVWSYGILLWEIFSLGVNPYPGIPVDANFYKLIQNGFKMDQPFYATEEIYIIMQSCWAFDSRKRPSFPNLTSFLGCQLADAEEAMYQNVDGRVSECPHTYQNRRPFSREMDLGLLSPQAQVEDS
Put plainly: (§1) Selectivity interaction (Ambit KINOMEscan and KiNATiv profiling in Jurkat cells) EUB0000090b FLT3.

Experiment [2] concerns T2, Receptor-type tyrosine-protein kinase FLT3 (Homo sapiens), P36888 [R834Q].
T2 sequence (whole entry): T1 sequence (whole entry) with R834Q, Y835D
The description is as §1.

For experiment [3], the system named is Receptor-type tyrosine-protein kinase FLT3 (Homo sapiens), P36888 [UNDEFINED MUTATION]. The description is as §1.
Experiment [4] concerns T3, Receptor-type tyrosine-protein kinase FLT3 (Homo sapiens), P36888 [D835H].
T3 sequence (whole entry): T1 sequence (whole entry) with Y835H
The experiment is described as §1.

As for `CN(C)C/C=C/C(=O)Nc1ccc(C(=O)N2CCCC(Nc3ncc(Cl)c(-c4c[nH]c5ccccc45)n3)C2)cc1` (centres undefined), the % of control in experiment [1] worked out at 76%; in experiment [2], 92%; in experiment [3], 86%; in experiment [4] it was 64%.
